The test system of the experiment is pain reactions caused by phenylbenzoquinone. Briefly: Siegmund test with phenylbenzoquinone (analgesic activity after oral administration). As to conditions: Mus musculus, read-out: AD50 confidence limits. Format: in vivo, male mice, CD1 strain (Charles River).
[1] abbreviates: 50% active dose with confidence limits, oral (gastric intubation), 1 hour before phenylbenzoquinone i.p., twists and stretches counted 5th to 10th minute, mice.

The structures appear in SMILES notation. Like-named read-outs stand apart in the source and are kept apart here.

Method: This method makes it possible to assess the analgesic activity of molecules having both a peripheral and a central action.
Male mice of the CD1 strain (Charles River) and OF1 strain (Iffa Credo), weighing from 19 to 22 g, were used for the Siegmund test and the Eddy test respectively. The tests were carried out at an ambient temperature of 21°±2° C.
The products were suspended in an aqueous mixture of 1% gum arabic, 0.1% sodium chloride and 0.001% Tween 80.
One hour after administration of the product studied, 0.20 to 0.22 ml of a 0.02% aqueous-alcoholic solution of phenylbenzoquinone is administered to the mice intraperitoneally.
The number of pain reactions (twists and stretches) is counted from the 5th to the 10th minute.
The products of the examples studied were administered to groups of 6 to 12 mice by gastric intubation (0.5 ml/20 g), one hour before phenylbenzoquinone, according to the following dosage schedule:
The percentage inhibition of pain manifestations was calculated from the mean numbers of twists per group.
The 50% active doses and their confidence limits were determined from the linear regression carried out on the parameters measured.

In the case of `Cl.Cl.Fc1ccc(N2CCNCC2)c(F)c1` [Example 1, 4-(2,4-Difluorophenyl)piperazine dihydrochloride], the ED50 (po) was 2.16 mg/kg. Consider `FC(F)(F)c1cccc(N2CCN(CCSc3nnc4c(C(F)(F)F)cccn34)CC2)c1.O=C(O)/C=C\C(=O)O` [Example 24, 3-[2-(4-(3-Trifluoromethylphenyl)piperazin-1-yl)ethylmercapto]-8-trifluoromethyl-1,2,4-triazolo(4,3-a)pyridine maleate], for which the ED50 under setting [1] is 4.53 mg/kg. For the compound `Fc1ccc(N2CCN(CCSc3nnc4c(C(F)(F)F)cccn34)CC2)c(F)c1` [Example 28, 3-[2-(4-(2,4-Difluorophenyl)piperazin-1-yl)ethylmercapto]-8-trifluoromethyl-1,2,4-triazolo(4,3-a)pyridine], the ED50 under setting [1] came out at 22.4 mg/kg. Consider `Cc1ccc2nnc(SCCN3CCN(c4cccc(C(F)(F)F)c4)CC3)n2c1.Cl.Cl` [Example 31, 3-[2-(4-(3-Trifluoromethylphenyl)piperazin-1-yl)ethylmercapto]-6-methyl-1,2,4-triazolo(4,3-a)pyridine dihydrochloride], for which the ED50 under setting [1] was 3.6 mg/kg. Same read-out and setting: next, `Fc1ccc(N2CCN(CCCSc3nnc4c(C(F)(F)F)cccn34)CC2)c(F)c1` [Example 32, 3-[3-(4-(2,4-Difluorophenyl)piperazin-1-yl)propylmercapto]-8-trifluoromethyl-1,2,4-triazolo(4,3-a)pyridine]: 12.6 mg/kg; `FC(F)(F)c1cccc(N2CCN(CCSc3nnc4ccccn34)CC2)c1.O=C(O)/C=C\C(=O)O` [Example 33, 3-[2-(4-(3-Trifluoromethylphenyl)piperazin-1-yl)ethylmercapto]-1,2,4-triazolo(4,3-a)pyridine maleate]: 1.71 mg/kg. On to `Cl.Cl.Fc1ccccc1N1CCN(CCSc2nnc3ccccn23)CC1` [Example 41, 3-[2-(4-(2-Fluorophenyl)piperazin-1-yl)ethylmercapto]-1,2,4-triazolo(4,3-a)pyridine dihydrochloride], for which the ED50 under setting [1] came to 3.19 mg/kg. Still for that read-out and setting: next, `Fc1ccc(N2CCN(CCCSc3nnc4ccccn34)CC2)c(F)c1` [Example 43, 3-[3-(4-(2,4-Difluorophenyl)piperazin-1-yl)propylmercapto]-1,2,4-triazolo(4,3-a)pyridine]: 13.9 mg/kg; `Fc1ccc(N2CCN(CCSc3nnc4ccccn34)CC2)c(F)c1` [Example 44, 3-[2-(4-(2,4-Difluorophenyl)piperazin-1-yl)ethylmercapto]-1,2,4-triazolo(4,3-a)pyridine]: 11 mg/kg. Regarding `Fc1ccc(C2=CCN(CCSc3nnc4ccccn34)CC2)cc1` [Example 45, 3-[2-(4-(4-Fluorophenyl)-1,2,3,6-tetrahydropyridin-1-yl)ethylmercapto]-1,2,4-triazolo(4,3-a)pyridine], the ED50 (po) stood at 33 mg/kg. Still for that read-out and setting: next, `Clc1ccc(C2=CCN(CCSc3nnc4ccccn34)CC2)cc1` [Example 48, 3-[2-(4-(4-Chlorophenyl)-1,2,3,6-tetrahydropyridin-1-yl)ethylmercapto]-1,2,4-triazolo(4,3-a)pyridine]: 16.1 mg/kg. For the compound `Clc1cccc(N2CCN(CCSc3nnc4ccccn34)CC2)c1` [Example 49, 3-[2-(4-(3-Chlorophenyl)piperazin-1-yl)ethylmercapto]-1,2,4-triazolo(4,3-a)pyridine], the ED50 under setting [1] is 2.45 mg/kg.

`FC(F)(F)c1cccc(N2CCN(CCCSc3nnc4ccc5ccccc5n34)CC2)c1` [Example 57, 1-[3-(4-(3-Trifluoromethylphenyl)piperazin1-yl)propylmercapto]-s-triazolo(4,3-a)quinoline]: under setting [1], the ED50 was determined as 8.56 mg/kg. Take `Cc1cc2ccccc2n2c(SCCCN3CCN(c4cccc(C(F)(F)F)c4)CC3)nnc12` [Example 59, 1-[3-(4-(3-Trifluoromethylphenyl)piperazin-1-yl)propylmercapto]-4-methyl-s-triazolo(4,3-a)quinoline]: the ED50 under setting [1] is 14.1 mg/kg. `Cc1cc2nnc(SCCN3CCN(c4ccc(F)cc4F)CC3)n2c2ccccc12` [Example 62, 1-[2-(4-(2,4-Difluorophenyl)piperazin-1-yl)ethylmercapto]-5-methyl-s-triazolo(4,3-a)quinoline]: the ED50 under setting [1] was determined as 11 mg/kg. On the same count and under the same terms, the figure for `Cc1cc2ccccc2n2c(SCCN3CCN(c4cccc(C(F)(F)F)c4)CC3)nnc12` [Example 63, 1-[2-(4-(3-Trifluoromethylphenyl)piperazin-1-yl)ethylmercapto]-4-methyl-s-triazolo(4,3-a)quinoline] is 8.17 mg/kg; for `Cc1cc2ccccc2n2c(SCCCN3CCN(c4ccc(F)cc4F)CC3)nnc12` [Example 66, 1-[3-(4-(2,4-Difluorophenyl)piperazin-1-yl)propylmercapto]-4-methyl-s-triazolo(4,3-a)quinoline] it is 17.9 mg/kg.

Source of the values: patent US4886805A, “Novel aminoalkylthio derivatives of triazolopyridine or triazoloquinoline, the processes for their preparation, and drugs, useful especially as analgesics, in which they are present” (Centre D'Activite Et De Recherches Pharmaceutique …, priority 1986, dated 1989).
